Data: PubChem BioAssay (NCI)
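Cells were grown in 96-well plates and exposed to each compound for 48 hours at five concentrations; endpoints were interpolated linearly between bracketing concentrations, or set to the highest concentration if not reached. The concentration for 50% growth inhibition is given as GI50. TGI denotes the concentration required for complete inhibition of growth.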

How the values were obtained:
Experiment in all cases: NCI tumour cell line growth inhibition, 48 h
M19-MEL melanoma = test system: M19-MEL melanoma
KM20L2 colon = test system: KM20L2 colon
LXFL 529 NSCLC = test system: LXFL 529 NSCLC
P388 leukemia = test system: P388 leukemia
P388/ADR leukemia = test system: P388/ADR leukemia
SNB-78 CNS = test system: SNB-78 CNS
DLD-1 colon = test system: DLD-1 colon
SN12K1 renal = test system: SN12K1 renal

O=C1c2ccncc2C(=O)c2c(O)ccc(O)c21
TGI (M19-MEL melanoma): 9.58 µM | TGI (KM20L2 colon): 8.12 µM | TGI (LXFL 529 NSCLC): 22 µM

Cc1ccc(N2C(=O)C3CSCN3C2=O)cc1 (stereo not given)
TGI (P388 leukemia): > 100 µM | TGI (M19-MEL melanoma): > 100 µM | TGI (P388/ADR leukemia): > 100 µM | GI50 (SNB-78 CNS): > 100 µM | TGI (SNB-78 CNS): > 100 µM | TGI (DLD-1 colon): > 100 µM | TGI (SN12K1 renal): > 100 µM
